System: mosquitoes
Assay: Field mosquito collection with CDC-type mosquito trap baited with carbon dioxide
Assay type: in vivo
Settings: for mosquitoes collected: carbon dioxide flow rate 250 mL/min
Description: As in Example 2, except that the sodium bicarbonate was delivered at 0.94 g·min so as to give a carbon dioxide flow rate of 250 mL/min. The gas outlet was coupled to a CDC-type mosquito trap, available from the John W. Hock Company of Gainesville Fla., and allowed to collect mosquitoes for 12 hours. For comparison, a similar trap but with carbon dioxide from a tank was placed about 100 m away. Sites were selected so as to provide a testing area that is known to be infested by mosquitoes and to provide similar terrain. In the comparison apparatus care was taken to use the same carbon dioxide flow rate.

O=C=O [CO2 Gas Tank, carbon dioxide]
mosquitoes collected (Aug. 2, 2010, 12 hours): 12 | mosquitoes collected (Aug. 5, 2010, 12 hours): 1 | mosquitoes collected (Jul. 8, 2010, 12 hours): 73 | mosquitoes collected (Jul. 12, 2010, 12 hours): 49 | mosquitoes collected (Jul. 14, 2010, 12 hours): 14 | mosquitoes collected (Jul. 15, 2010, 12 hours): 73 | mosquitoes collected (Jul. 20, 2010, 12 hours): 53 | mosquitoes collected (Jun. 23, 2010, 12 hours): 99 | mosquitoes collected (Jun. 29, 2010, 12 hours): 34 | Total collected (mosquitoes) (sum over 9 non-consecutive days, 12 hours each, 250 mL/min carbon dioxide): 408
